PMC3914206

How the values were obtained:
Assay type in all cases: binding
panel of 442 kinases [1] = molecular target: T1, panel of 442 kinases (Homo sapiens, UniProt P54756); details: Compound Concentration 10 µM
T1 construct: purchased KINOMEscan
Text: (§1) We assessed the selectivity of members of this scaffold using the KINOMEscan methodology across a near comprehensive panel of 442 kinases [[18,27]].

panel of 442 kinases [2] = molecular target: T2, panel of 442 kinases (Homo sapiens, UniProt Q9BX84); details: kinase TRPM6; compound concentration 10 µM
T2 construct: purchased KINOMEscan
T2 sequence (Q9BX84 whole entry): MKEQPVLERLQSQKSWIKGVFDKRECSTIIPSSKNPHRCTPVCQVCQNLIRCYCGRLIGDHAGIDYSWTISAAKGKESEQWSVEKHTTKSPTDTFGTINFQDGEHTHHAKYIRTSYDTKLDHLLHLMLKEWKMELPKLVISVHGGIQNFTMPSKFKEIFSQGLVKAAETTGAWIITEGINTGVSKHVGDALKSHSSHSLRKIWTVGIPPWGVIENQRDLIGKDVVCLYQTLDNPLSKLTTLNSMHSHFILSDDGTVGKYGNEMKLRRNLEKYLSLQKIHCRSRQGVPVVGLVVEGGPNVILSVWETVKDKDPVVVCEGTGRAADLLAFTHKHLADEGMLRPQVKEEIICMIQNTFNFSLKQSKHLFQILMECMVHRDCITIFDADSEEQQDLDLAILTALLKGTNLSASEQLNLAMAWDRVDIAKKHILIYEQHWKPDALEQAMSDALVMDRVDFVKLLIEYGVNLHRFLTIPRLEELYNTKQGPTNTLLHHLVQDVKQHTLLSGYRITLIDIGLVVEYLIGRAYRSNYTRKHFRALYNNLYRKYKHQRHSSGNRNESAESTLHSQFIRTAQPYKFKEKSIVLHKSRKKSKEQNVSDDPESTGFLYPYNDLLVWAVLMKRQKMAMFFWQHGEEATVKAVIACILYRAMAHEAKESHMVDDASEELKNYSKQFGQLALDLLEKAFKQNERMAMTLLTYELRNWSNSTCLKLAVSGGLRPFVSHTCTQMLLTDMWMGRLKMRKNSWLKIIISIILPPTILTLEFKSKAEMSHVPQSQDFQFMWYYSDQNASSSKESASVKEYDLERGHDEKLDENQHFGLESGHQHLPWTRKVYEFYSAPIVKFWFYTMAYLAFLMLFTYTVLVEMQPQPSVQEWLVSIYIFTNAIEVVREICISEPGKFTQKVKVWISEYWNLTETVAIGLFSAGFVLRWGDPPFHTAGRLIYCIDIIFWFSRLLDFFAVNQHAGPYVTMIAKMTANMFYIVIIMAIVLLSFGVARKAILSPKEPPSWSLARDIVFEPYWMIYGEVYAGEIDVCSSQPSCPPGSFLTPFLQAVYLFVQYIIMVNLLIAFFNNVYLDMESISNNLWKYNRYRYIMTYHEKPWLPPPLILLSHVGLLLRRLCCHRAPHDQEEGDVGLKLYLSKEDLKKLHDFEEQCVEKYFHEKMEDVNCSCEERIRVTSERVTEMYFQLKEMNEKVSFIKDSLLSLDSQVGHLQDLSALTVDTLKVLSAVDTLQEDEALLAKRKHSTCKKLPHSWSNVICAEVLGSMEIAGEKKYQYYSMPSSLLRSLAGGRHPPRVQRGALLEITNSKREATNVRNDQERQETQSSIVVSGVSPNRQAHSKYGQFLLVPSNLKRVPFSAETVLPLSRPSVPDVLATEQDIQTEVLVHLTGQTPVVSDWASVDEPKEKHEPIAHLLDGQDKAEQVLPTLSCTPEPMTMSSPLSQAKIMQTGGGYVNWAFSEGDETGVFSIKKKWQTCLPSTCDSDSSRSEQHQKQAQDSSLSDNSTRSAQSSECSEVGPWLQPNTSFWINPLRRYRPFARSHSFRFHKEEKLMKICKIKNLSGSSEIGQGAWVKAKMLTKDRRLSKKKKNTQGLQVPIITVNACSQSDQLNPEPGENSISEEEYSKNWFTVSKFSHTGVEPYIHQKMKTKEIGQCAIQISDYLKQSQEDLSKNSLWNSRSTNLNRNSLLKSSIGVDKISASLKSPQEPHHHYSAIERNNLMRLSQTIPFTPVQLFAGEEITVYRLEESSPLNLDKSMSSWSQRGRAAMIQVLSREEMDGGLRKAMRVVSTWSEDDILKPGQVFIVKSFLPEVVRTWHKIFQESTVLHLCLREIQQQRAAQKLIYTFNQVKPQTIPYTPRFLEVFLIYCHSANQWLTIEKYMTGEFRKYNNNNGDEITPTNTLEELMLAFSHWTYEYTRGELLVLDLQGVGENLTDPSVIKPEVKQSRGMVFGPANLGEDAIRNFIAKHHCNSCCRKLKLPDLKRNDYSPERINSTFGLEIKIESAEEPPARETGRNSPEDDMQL
Text: as §1

panel of 442 kinases [3] = molecular target: T3, panel of 442 kinases (Homo sapiens, UniProt P54646); details: Compound Concentration 10 µM
T3 construct: purchased KINOMEscan
T3 sequence (P54646 whole entry): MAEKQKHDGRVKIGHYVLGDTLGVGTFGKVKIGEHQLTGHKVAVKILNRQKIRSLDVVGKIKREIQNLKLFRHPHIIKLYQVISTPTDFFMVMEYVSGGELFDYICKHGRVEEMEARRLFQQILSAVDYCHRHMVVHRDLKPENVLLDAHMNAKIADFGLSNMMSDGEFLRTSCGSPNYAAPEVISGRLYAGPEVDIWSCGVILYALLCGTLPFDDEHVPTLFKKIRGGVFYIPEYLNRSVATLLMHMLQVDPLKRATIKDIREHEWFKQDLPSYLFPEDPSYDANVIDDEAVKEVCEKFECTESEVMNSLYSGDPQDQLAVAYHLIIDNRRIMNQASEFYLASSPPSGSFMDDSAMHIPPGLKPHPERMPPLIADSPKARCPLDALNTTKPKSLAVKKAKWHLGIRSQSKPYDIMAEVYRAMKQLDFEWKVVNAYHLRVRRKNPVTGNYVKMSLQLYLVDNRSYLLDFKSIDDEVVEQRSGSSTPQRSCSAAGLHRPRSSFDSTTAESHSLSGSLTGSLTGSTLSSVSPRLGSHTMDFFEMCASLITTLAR
Text: as §1

T1 sequence (P54756 25-1037): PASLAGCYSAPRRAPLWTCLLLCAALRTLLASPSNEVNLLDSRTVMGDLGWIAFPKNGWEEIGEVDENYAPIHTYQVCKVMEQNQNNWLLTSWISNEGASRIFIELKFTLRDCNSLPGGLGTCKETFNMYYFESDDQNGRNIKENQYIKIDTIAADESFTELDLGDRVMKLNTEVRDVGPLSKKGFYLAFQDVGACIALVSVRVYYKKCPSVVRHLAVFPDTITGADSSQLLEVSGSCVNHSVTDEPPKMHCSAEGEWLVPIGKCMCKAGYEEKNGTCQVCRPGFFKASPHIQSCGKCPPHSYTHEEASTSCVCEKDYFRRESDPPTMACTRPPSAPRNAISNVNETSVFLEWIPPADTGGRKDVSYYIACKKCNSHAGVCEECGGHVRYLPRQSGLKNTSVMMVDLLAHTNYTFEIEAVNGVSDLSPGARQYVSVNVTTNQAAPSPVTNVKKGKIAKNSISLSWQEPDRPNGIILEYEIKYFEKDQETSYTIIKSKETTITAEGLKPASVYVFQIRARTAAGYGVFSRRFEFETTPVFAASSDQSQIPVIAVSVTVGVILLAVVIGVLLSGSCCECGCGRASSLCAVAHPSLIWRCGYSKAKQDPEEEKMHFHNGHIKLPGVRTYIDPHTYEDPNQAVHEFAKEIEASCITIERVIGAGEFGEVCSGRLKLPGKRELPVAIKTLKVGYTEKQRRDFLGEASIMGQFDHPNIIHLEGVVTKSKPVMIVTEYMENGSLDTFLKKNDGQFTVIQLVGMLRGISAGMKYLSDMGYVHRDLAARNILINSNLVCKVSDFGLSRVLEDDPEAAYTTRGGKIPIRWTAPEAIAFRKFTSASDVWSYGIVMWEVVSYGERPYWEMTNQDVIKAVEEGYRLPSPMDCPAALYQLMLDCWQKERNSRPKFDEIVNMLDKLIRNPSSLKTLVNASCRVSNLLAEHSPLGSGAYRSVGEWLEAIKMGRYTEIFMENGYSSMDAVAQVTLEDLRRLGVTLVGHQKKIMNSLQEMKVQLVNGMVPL

| Structure (SMILES) | KINOMEscan: EPHA5 (panel of 442 kinases [1]) | % Ctrl, TRPM6 (panel of 442 kinases [2]) | KINOMEscan: AMPK-alpha2 (panel of 442 kinases [3]) |
| --- | --- | --- | --- |
| COc1cc(C(=O)N2CCC(N3CCN(C)CC3)CC2)ccc1Nc1ncc2c(n1)N1CCc3cccc(c31)C(=O)N2C [Compound 24] | 94 | 100 % Ctrl |  |
| CCOc1cc(C(=O)N2CCC(N3CCN(C)CC3)CC2)ccc1Nc1ncc2c(n1)N(C1CCCC1)c1ccccc1C(=O)N2C [Compound 26] | 100 | 94 % Ctrl | 100 |
| COc1cc(C(=O)N2CCC(N3CCN(C)CC3)CC2)ccc1Nc1ncc2c(n1)N(C1CCCC1)c1ccccc1C(=O)N2C [Compound 25, 11-cyclopentyl-2-((2-methoxy-4-(4-(4-methylpiperazin-1-yl)piperidine-1-carbonyl)phenyl)amino)-5-methyl-5H-benzo[e]pyrimido[5,4-b][1,4]diazepin-6(11H)-one] | 99 | 100 % Ctrl | 76 |
| COc1cc(C(=O)N2CCC(N3CCN(C)CC3)CC2)ccc1Nc1ncc2c(n1)N(C)c1ccccc1C(=O)N2C [15 (LRRK2-IN-1)] | 95 | 100 % Ctrl | 66 |
